Values quoted from earlier work, collected in patent publication US20080318218A1, “Compositions and Methods for Inferring an Adverse Effect in Response to a Drug Treatment” (DNAPrint Genomics, Inc., priority 2004, published 2008).
Each block holds one compound with its values, some of them ahead of it.

Tests used:
[1] = tested on: NO synthase; conditions: ACE inhibitor-associated cough; P<0.01; not with placebo
[2] = clinical trials
[3] = human, in vivo

SMILES: [Fe] [iron]
cough scores [1]: significant reduction

patients experiencing muscle discomfort and/or creatine kinase elevations in response to treatment [2]: about 1%
SMILES: COCc1c(C(C)C)nc(C(C)C)c(/C=C/[C@@H](O)C[C@@H](O)CC(=O)O)c1-c1ccc(F)cc1 [Baycol, Cerivastatin]

patients exhibiting persistent and dose-dependent indications of hepatic stress (elevation in serum transaminase SGOT, ALTGPT) [3]: Approximately 0.7%
SMILES: CC(C)c1c(C(=O)Nc2ccccc2)c(-c2ccccc2)c(-c2ccc(F)cc2)n1CC[C@@H](O)C[C@@H](O)CC(=O)O [Atorvastatin]
